The values below are quoted from earlier work in patent publication US5981529A, “Substituted indolylpropyl-piperazine derivatives as 5-HT1D α agonists” (Merck Sharp & Dohme Limited, priority 1995, dated 1999).

The test system of series [1] is human 5-HT1Dα and 5-HT1Dβ receptor subtypes. Particulars: cf. WO-A-91/17174, Table 1.
The conditions of series [2]: therapeutic doses.

For the compound `CNS(=O)(=O)Cc1ccc2[nH]cc(CCN(C)C)c2c1` [sumatriptan], the “discrimination between the human 5-HT1Dα and 5-HT1Dβ receptor subtypes” value in series [1] is “barely discriminates between the human 5-HT1Dα and 5-HT1Dβ receptor subtypes”. In addition, in series [2], the “adverse events on administration to humans” value was “certain adverse cardiovascular events”.
